# Tests used:
# Assay type in all cases: cell-based, mouse
# βTC-6 cells [1] = assay: Calcium spiking frequency (Fluo-8) after 810 nm PBM exposure, pharmacologic studies
# Description: Cell Culture. […] Cell passage was performed weekly with 0.25% Trypsin-EDTA. Samples were prepared by seeding βTC-6 cells on glass coverslips in low glucose media. These samples were used for experimentation between days 2 through 5. All cells were incubated at 37° C. in a 5% CO2 environment.
# PBM Parameters. A Cytonsys (Austin, TX) 810 nm near-infrared laser was used to perform all experimentation. […] Herein, all βTC-6 samples were exposed to 810 nm for 1 minute with an irradiance of 150 mW/cm^2, resulting in a fluence of 9 J/cm^2. To measure the bulk temperature rise that was due to laser exposure, an Omega HH42A thermistor was used before and after irradiation.
# (§1) Live Cell Imaging. For calcium and mitochondrial superoxide (mROS) detection, the cells were stained with Fluo-8 (0.8 μM, Abcam, Cambridge, UK), Mitosox (5 μM, Thermo-Fisher, Waltham, MA) and 1 drop/mL of Nucblue (Thermo-Fisher, Waltham, MA) for detection of intracellular calcium, mROS, and nucleic acid, respectively. The fluorescent dye DAF-FM (5 μM, Thermo-Fisher) was used to detect and measure cytosolic nitric oxide (NO). Hanks balanced salt solution (HBSS) was used (H8264, Sigma, St. Louis, MO) unless stated otherwise. Samples were stained at 37° C. for 30 minutes before being washed and mounted onto the imaging chamber.
# Calcium Activity Analysis. Regions of interest (ROIs) were placed on individual cells using the nucleic acid staining and transferred to perform and calculate mean fluorescent intensity over time with background subtraction. Approximately 100 to 200 cells were monitored for each data point, and the results were averaged. A conservative moving average threshold (10 data points) with a 10% cutoff was used to determine a calcium spike. […] The active population was defined by the total number of active cells divided by the number of cells analyzed. The average spiking frequency of these active cells was then determined at each time point. Measurements were taken using Nikon Elements software and data analysis was carried out using Microsoft Excel. […]
# βTC-6 cells [2] = assay: Mitochondrial superoxide (MitoSOX intensity) after 810 nm PBM exposure; details: ascorbic acid 2.5 mM, 9 J/cm^2
# Description: PBM Parameters. A Cytonsys (Austin, TX) 810 nm near-infrared laser was used to perform all experimentation. […] The energy density of 9 J/cm^2 was previously shown to have therapeutic effects on hepatic tissue in a diabetic state. […] Herein, all βTC-6 samples were exposed to 810 nm for 1 minute with an irradiance of 150 mW/cm^2, resulting in a fluence of 9 J/cm^2. To measure the bulk temperature rise that was due to laser exposure, an Omega HH42A thermistor was used before and after irradiation.
# as §1
# Pharmacologic Studies. All drugs were added to the staining buffer. Samples were treated with each drug for 30 minutes before imaging. For L-type VGCC blocking, Verapamil (100 μM, V4629, Sigma) was applied. Capsazepine (10 μM, C191, Sigma) was added as a TRPV1 antagonist. […]
# βTC-6 insulinoma cells = assay: Intracellular calcium rise (Fluo-8) after electric field exposure, blocking experiment; details: verapamil 100 μM, incubated 30 minutes before 3 V/cm EF for 15 min, HBSS
# Description: Calcium labeling and depletion. Samples were washed with HBSS (Sigma) and incubated with 0.8 μM Fluo-8 (Abcam) for 30 minutes. NucBlue solution (Thermo) was added for 15 min in accordance to the manufacturer's recommended concentration to stain the nuclei. Cells were washed again and mounted onto the chamber. Changes in the Fluo-8 fluorescent intensity were monitored and recorded. Fluorescent images were acquired for 2 min at 5 s intervals with a 250 ms exposure time before and after the DCEF was applied. Image analysis was performed using the Nikon Elements image processor by identifying a ROI selection on selected nuclei with mean intensity of Fluo-8 over time. […]
# Calcium Fluorescent Microscopy. […] Measurements for calcium rise recorded a single static image before and after EF exposure, while calcium spiking was recorded over 2 minutes before and after EFS with a 5 second sampling interval.
# Calcium Image Analysis. For calcium rise, the mean intensity of clusters in the sample were measured at 0 minute (Pre) and 15 minute (Post) time points using Nikon Elements. Background subtraction was then performed and the percent change was determined by comparing the post-exposure to the pre-exposure mean intensities. […] The mean intensity over time was measured for both the pre and post imaging sessions. […]
smiles,measurement,setting,value
"O=C1O[C@H]([C@@H](O)CO)C(O)=C1O [ascorbic acid, Ascorbic Acid]","calcium spiking frequency of active cells following PBM, AA-treated versus control","βTC-6 cells [1]; ascorbic acid 2.5 mM, 9 J/cm^2",no significant difference in the calcium spiking frequency analysis between the AA-treated and control cells until the 10-minute time point
same,MitoSOX intensity following PBM (superoxide),βTC-6 cells [2],significant reduction in the MitoSOX intensity
COc1ccc(CCN(C)CCCC(C#N)(c2ccc(OC)c(OC)c2)C(C)C)cc1OC (centres unmarked) [Verapamil],increase in intracellular calcium level in response to EF,βTC-6 insulinoma cells,effectively blocked the increase in intracellular calcium level
"O=C1CN(/N=C/c2ccc(-c3ccc([N+](=O)[O-])cc3)o2)C(O)=N1 [dantrolene, Dantrolene]","calcium spiking frequency following PBM, versus control","βTC-6 cells [1]; dantrolene 50 μM, 30 minutes, 9 J/cm^2, difference only noticeable at the 15-minute mark",decreased in comparison to the control
NCCOB(c1ccccc1)c1ccccc1 [2-APB],calcium spiking frequency following PBM,"βTC-6 cells [1]; 2-APB 10 μM (FIG. 10B legend 20 μM), 30 minutes, 9 J/cm^2",significantly impede such an increase in the calcium spiking frequency by PBM

# Reference: patent US11834640B2, “Device and uses thereof for treating diabetes” (Board of Regents, The University of Texas System, priority 2019, dated 2023)
